Bounds are passed on as bounds.

In this test the test system is HCT116 MTAP-/- cells. The test is described as follows: Cell growth inhibition test (SRB staining). It counts as cell-based. The settings on record: Homo sapiens, HCT-116, 144 h; HCT116 MTAP-/- cells, 0.64 nM - 2,000 nM, 6 dose points, 6 days, SRB staining, absorbance at 540 nm; read-out: HCT116 MTAP-/- cell growth inhibition (GI50). On the procedure: The synthetic compounds above were tested for cell growth inhibition against HCT116 cells.
HCT116 MTAP-/- (homozygous knockout of MTAP gene in HCT116 MTAP-WT cells by CRISPER/Cas9 method) cells were maintained in RPMI1640 medium containing 10 % FBS and 1 % penicillin-streptomycin. Approximately 5×10^2 cells were seeded in a 96-well plate and treated with a test compound. (0.64 nM - 2,000 nM, 6 dose points for HCT116 MTAP-/- cells for 5x and 6 days) cell growth was measured by SRB staining and absorbance was detected at 540 nm on a Synergy™ NEO microplate reader. The 50 % growth inhibition value (GI50) of the cell line was calculated using GraphPad Prism V9 software.

As for `Cc1ncccc1-n1c(=O)c2nc(Cc3ccc(OC(F)F)cc3)n(C)c2c2ccc(C(F)(F)F)nc21` [Compound 58, 2-(4-(Difluoromethoxy)benzyl)-1-methyl-5-(2-methylpyridin-3-yl)-7-(trifluoromethyl)-1,5-dihydro-4H-imidazo[4,5-c][1,8]naphthyridin-4-one], the GI50 is below 100 nM.
With `COc1ccc(Sc2nc3c(=O)n(-c4cccnc4C)c4nc(C(F)(F)F)ccc4c3n2C)cc1` [Compound 59, 2-((4-methoxyphenyl)thio)-1-methyl-5-(2-methylpyridin-3-yl)-7-(trifluoromethyl)-1,5-dihydro-4H-imidazo[4,5-c][1,8]naphthyridin-4-one], the GI50 is below 100 nM.
Regarding `Cc1ncccc1-n1c(=O)c2nc(Sc3ccc(F)cc3)n(C)c2c2ccc(C(F)(F)F)nc21` [Compound 60, 2-((4-fluorophenyl)thio)-1-methyl-5-(2-methylpyridin-3-yl)-7-(trifluoromethyl)-1,5-dihydro-4H-imidazo[4,5-c][1,8]naphthyridin-4-one], the GI50 lay in the range of 100 to 500 nM.
Turning to `COc1ccc(Sc2nc3c(=O)n(-c4cccnc4C)c4nc(C(F)(F)F)ncc4c3n2C)cc1` [Compound 61, 2-((4-methoxyphenyl)thio)-1-methyl-5-(2-methylpyridin-3-yl)-7-(trifluoromethyl)-1,5-dihydro-4H-imidazo[4',5':4,5]pyrido[2,3-d]pyrimidin-4-one], the GI50 was below 100 nM.
For the compound `CCOc1ncc2c3c(nc(Cc4ccc(OC)cc4)n3C)c(=O)n(-c3cccnc3C)c2n1` [Compound 62, 7-ethoxy-2-(4-methoxybenzyl)-1-methyl-5-(2-methylpyridin-3-yl)-1,5-dihydro-4H-imidazo[4',5':4,5]pyrido[2,3-d]pyrimidin-4-one], the GI50 was above 1000 nM.
On to `COc1ccc2c3c(nc(Cc4ccc(OC(F)F)cc4)n3C)c(=O)n(-c3cccnc3C)c2n1` [Compound 63, 2-(4-(difluoromethoxy)benzyl)-7-methoxy-1-methyl-5-(2-methylpyridin-3-yl)-1,5-dihydro-4H-imidazo[4,5-c][1,8]naphthyridin-4-one], for which the GI50 is below 100 nM.
On to `COc1ccc(Cc2nc3c(=O)n(-c4cccnc4C)c4nc(OC)ccc4c3n2C)cc1` [Compound 64, 7-methoxy-2-(4-methoxybenzyl)-1-methyl-5-(2-methylpyridin-3-yl)-1,5-dihydro-4H-imidazo[4,5-c][1,8]naphthyridin-4-one], for which the GI50 is below 100 nM.
In the case of `CCc1ccc2c3c(nc(Cc4ccc(OC(F)F)cc4)n3C)c(=O)n(-c3cccnc3C)c2n1` [Compound 65, 2-(4-(difluoromethoxy)benzyl)-7-ethyl-1-methyl-5-(2-methylpyridin-3-yl)-1,5-dihydro-4H-imidazo[4,5-c][1,8]naphthyridin-4-one], the GI50 was below 100 nM.
For the compound `Cc1ncccc1-n1c(=O)c2nc(Cc3ccc(OC(F)F)cc3)n(C)c2c2ccc(C3CC3)nc21` [Compound 66, 7-cyclopropyl-2-(4-(difluoromethoxy)benzyl)-1-methyl-5-(2-methylpyridin-3-yl)-1,5-dihydro-4H-imidazo[4,5-c][1,8]naphthyridin-4-one], the GI50 is below 100 nM.

Values taken from patent publication EP4582423A1, “NOVEL TRICYCLIC DERIVATIVE COMPOUND AND USES THEREOF” (Hanmi Pharm. Co., Ltd., priority 2022, dated 2024).
